Measured values: PMC7956753, “Development of ^18F-Labeled Radiotracers for PET Imaging of the Adenosine A2A Receptor: Synthesis, Radiolabeling and Preliminary Biological Evaluation” (International Journal of Molecular Sciences, 2021)
Where “and” joins values, the source holds several entries; their conditions need not be identical. Equal values may be shown once. Read-outs that look alike come from different tables or passages of the source.

Key:
human A1R = molecular target: T1, human A1R (Homo sapiens, UniProt P30542); experiment: In vitro radioligand binding assay with [3H]DPCPX on membranes of CHO-K1 cells stably transfected with human A1R
T1 sequence (P30542 1-326): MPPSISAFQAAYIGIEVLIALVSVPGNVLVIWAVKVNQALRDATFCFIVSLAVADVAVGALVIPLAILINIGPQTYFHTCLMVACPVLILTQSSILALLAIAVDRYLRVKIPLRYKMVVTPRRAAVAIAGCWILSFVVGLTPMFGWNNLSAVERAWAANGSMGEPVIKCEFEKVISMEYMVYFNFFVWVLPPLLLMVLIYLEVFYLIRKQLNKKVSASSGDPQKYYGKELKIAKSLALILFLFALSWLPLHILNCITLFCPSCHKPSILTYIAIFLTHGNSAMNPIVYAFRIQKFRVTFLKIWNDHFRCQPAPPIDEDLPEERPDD

human A2AR = human A2AR (Homo sapiens, UniProt P29274); experiment: In vitro radioligand binding assay with [3H]ZM241385 on membranes of CHO-K1 cells stably transfected with human A2AR; conditions: for Ki: in-house, mean ± standard deviation (n ≥ 3) or mean (n = 2, single values in brackets), Cheng-Prusoff
[1] = read-out: Ki(hA1R), in-house, mean ± standard deviation (n ≥ 3) or mean (n = 2, single values in brackets), Cheng-Prusoff

Sequence of human A2AR (P29274 whole entry): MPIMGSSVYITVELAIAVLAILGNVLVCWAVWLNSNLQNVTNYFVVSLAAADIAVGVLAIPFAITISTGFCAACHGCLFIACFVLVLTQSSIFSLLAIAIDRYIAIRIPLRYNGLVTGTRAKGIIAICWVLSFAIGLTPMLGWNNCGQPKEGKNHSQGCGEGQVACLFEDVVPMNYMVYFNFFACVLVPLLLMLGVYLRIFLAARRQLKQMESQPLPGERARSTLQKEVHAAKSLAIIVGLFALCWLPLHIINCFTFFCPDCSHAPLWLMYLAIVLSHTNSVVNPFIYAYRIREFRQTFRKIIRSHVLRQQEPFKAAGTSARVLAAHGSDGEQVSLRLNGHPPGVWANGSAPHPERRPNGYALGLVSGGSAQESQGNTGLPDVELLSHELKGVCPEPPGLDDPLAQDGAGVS

| Compound | Ki (human A1R) [nM] | Ki (human A2AR; Ki(hA2AR)) | also measured |
| --- | --- | --- | --- |
| Nc1nc(-c2ccco2)c2cnn(Cc3ccnc(F)c3)c2n1 [PPY7, 1-((2-Fluoropyridin-4-yl)methyl)-4-(furan-2-yl)-1H-pyrazolo[3,4-d]pyrimidin-6-amine] | 2880 | 161 ± 19 nM |  |
| Nc1nc(-c2ccco2)c2cnn(Cc3cc(F)cc(Br)c3)c2n1 [PPY10, 1-(3-Bromo-5-fluorobenzyl)-4-(furan-2-yl)-1H-pyrazolo[3,4-d]pyrimidin-6-amine] | 160 | 14.2 nM |  |
| Nc1nc(-c2ccco2)c2cnn(Cc3cccc(Cl)c3)c2n1 [PPY, reference compound] |  |  | Ki (human A2AR; read-out: Ki(hA2AR)): 1 ± 0.09 nM |
| 1-((6-Fluoropyridin-3-yl)methyl)-4-(furan-2-yl)-1H-pyrazolo[3,4-d]pyrimidin-6-amine [PPY5] |  |  | Ki (human A1R; [1]): 689 nM; Ki (human A2AR; read-out: Ki(hA2AR)): 25.7 ± 0.9 nM |
| 1-((6-Fluoropyridin-2-yl)methyl)-4-(furan-2-yl)-1H-pyrazolo[3,4-d]pyrimidin-6-amine [PPY6] |  |  | Ki (human A1R; [1]): 566 nM; Ki (human A2AR; read-out: Ki(hA2AR)): 27.1 ± 2.6 nM |
| Nc1nc(-c2ccco2)c2cnn(Cc3ccc(F)cc3)c2n1 [PPY1, 1-(4-Fluorobenzyl)-4-(furan-2-yl)-1H-pyrazolo[3,4-d]pyrimidin-6-amine] | 220 | 5.3 nM and 5.29 nM |  |
| Nc1nc(-c2ccco2)c2cnn(Cc3c(F)cccc3Br)c2n1 [PPY11, 1-(2-Bromo-6-fluorobenzyl)-4-(furan-2-yl)-1H-pyrazolo[3,4-d]pyrimidin-6-amine] | 162 ± 22 | 2.35 ± 0.3 nM |  |
| N#Cc1cc(F)cc(Cn2ncc3c(-c4ccco4)nc(N)nc32)c1 [PPY14, 3-((6-Amino-4-(furan-2-yl)-1H-pyrazolo[3,4-d]pyrimidin-1-yl)methyl)-5-fluoro-benzonitrile] | 954 | 291 nM |  |
| Nc1nc(-c2ccco2)c2cnn(Cc3cccc(OCCCF)c3)c2n1 [PPY18, 1-(3-(3-Fluoropropoxy)benzyl)-4-(furan-2-yl)-1H-pyrazolo[3,4-d]pyrimidin-6-amine] |  | 76.8 ± 12.9 nM |  |
| (6-Amino-4-(furan-2-yl)-1H-pyrazolo[3,4-d]pyrimidin-1-yl)(2-fluorophenyl)-methanone [PPY20] |  |  | Ki (human A1R; [1]): 1420 nM; Ki (human A2AR; read-out: Ki(hA2AR)): 275 nM |
| Nc1nc(-c2ccco2)c2cnn(Cc3cccnc3F)c2n1 [PPY4, 1-((2-Fluoropyridin-3-yl)methyl)-4-(furan-2-yl)-1H-pyrazolo[3,4-d]pyrimidin-6-amine] | 822 | 47.8 ± 4.8 nM |  |
| 2-((6-Amino-4-(furan-2-yl)-1H-pyrazolo[3,4-d]pyrimidin-1-yl)methyl)-5-fluoro-benzonitrile [PPY12] |  |  | Ki (human A1R; [1]): 810 nM; Ki (human A2AR; read-out: Ki(hA2AR)): 66.7 nM |
| Nc1nc(-c2ccco2)c2cnn(CCc3ccccc3F)c2n1 [PPY19, 1-(2-Fluorophenethyl)-4-(furan-2-yl)-1H-pyrazolo[3,4-d]pyrimidin-6-amine] | 245 | 107 nM |  |
| Nc1nc(-c2ccco2)c2cnn(Cc3ccccc3F)c2n1 [PPY2, 1-(2-Fluorobenzyl)-4-(furan-2-yl)-1H-pyrazolo[3,4-d]pyrimidin-6-amine] |  | 2.13 ± 0.42 nM | increase of A2AR binding affinity compared with PPY1 (human A2AR; ortho- vs para-fluorine): 2.5 fold; Ki (human A2AR; read-out: Ki(hA2AR)): 2.1 nM |
| Nc1nc(-c2ccco2)c2cnn(Cc3ccc(F)cc3Br)c2n1 [PPY9, 1-(2-Bromo-4-fluorobenzyl)-4-(furan-2-yl)-1H-pyrazolo[3,4-d]pyrimidin-6-amine] |  | 34.1 nM |  |
| Nc1nc(-c2ccco2)c2cnn(Cc3cccc(OCCF)c3)c2n1 [PPY17, 1-(3-(2-Fluoroethoxy)benzyl)-4-(furan-2-yl)-1H-pyrazolo[3,4-d]pyrimidin-6-amine] | 215 ± 38 | 4.5 ± 0.99 nM |  |
| Nc1nc(-c2ccco2)c2cnn(C(=O)c3ccccc3F)c2n1 [PPY21, (6-Amino-4-(furan-2-yl)-1H-pyrazolo[3,4-d]pyrimidin-1-yl)(2-fluorophenyl)-methanone] | 1550 | 283 nM |  |
| Nc1nc(-c2ccco2)c2cnn(Cc3cccc(CCF)c3)c2n1 [PPY16, 1-(3-(2-Fluoroethyl)benzyl)-4-(furan-2-yl)-1H-yrazolo[3,4-d]pyrimidin-6-amine] | 69.2 ± 32.8 | 1.63 ± 0.22 nM |  |
| Nc1nc(-c2ccco2)c2cnn(Cc3ccccc3)c2n1 [PPY22, 1-Benzyl-4-(furan-2-yl)-1H-pyrazolo[3,4-d]pyrimidin-6-amine] |  | 1.68 ± 0.14 nM |  |
| Nc1nc(-c2ccco2)c2cnn(Cc3cccc(F)c3)c2n1 [PPY3, 1-(3-Fluorobenzyl)-4-(furan-2-yl)-1H-pyrazolo[3,4-d]pyrimidin-6-amine] | 132 | 3.6 ± 1.29 nM | decrease of A2AR binding affinity compared with PPY (human A2AR; chlorine (PPY) exchanged for fluorine): 3 fold |
| Nc1nc(-c2ccco2)c2cnn(Cc3ccc(Br)cc3F)c2n1 [PPY8, 1-(4-Bromo-2-fluorobenzyl)-4-(furan-2-yl)-1H-pyrazolo[3,4-d]pyrimidin-6-amine] | 31.3 ± 15.5 | 0.93 ± 0.1 nM | increase of A2AR binding affinity compared with PPY2 (human A2AR; additional bromine): 2 fold |
| N#Cc1cccc(F)c1Cn1ncc2c(-c3ccco3)nc(N)nc21 [PPY15, 2-((6-Amino-4-(furan-2-yl)-1H-pyrazolo[3,4-d]pyrimidin-1-yl)methyl)-3-fluoro-benzonitrile] | 470 | 12.3 nM |  |
